Patent US20230183228A1, “SUBSTITUTED PYRAZOLYL COMPOUNDS AND METHODS OF USE THEREOF” (Chinook Therapeutics Canada, Inc., priority 2020, published 2023)

Columns and labels:
[1] = Liver-targeted tissue distribution profile study in rats; assay type: in vivo, Sprague Dawley rats; conditions: rat, single 10 mg/kg PO
Experimental: Plasma and liver (target organ) concentrations of test compounds were determined in rats following a single per os (PO) administration of the test compounds. Male Sprague Dawley rats (6-8 weeks of age, Charles River Labs) were fasted overnight and a single dose of test compounds (10 mg/kg; as a suspension in 0.5% methyl cellulose) was administered by PO gavage. Rats were then sacrificed at 4 and 24 h after administration of the test compounds, and plasma and liver tissue samples were collected. Liver tissue samples were homogenized in 5 volumes of water:acetonitrile (50/50; v/v) mixture using a bead mill homogenizer. Plasma and liver homogenate samples were processed by protein precipitation using acetonitrile and the concentrations of the test compounds were determined by liquid chromatography-tandem mass spectrometry (SciEx triple quad 5500+ with Exion UPLC).
Liver and plasma exposures at the 4 h and 24 h timepoints for the various compounds are described in Table 5 below. Measured compound concentrations are as follows: ++++>10 μM; 10 μM≥+++>5 μM; 5 μM≥++>1 μM; 1 μM≥+>0.25 μM; and 0.25 μM≥−.

[2] = system: fresh primary mouse hepatocytes; assay: Primary mouse hepatocyte assay (lactate production); assay type: cell-based
Experimental: Compounds were evaluated in an ex vivo assay consisting of fresh primary mouse hepatocytes. Hepatocytes were isolated from wild type mice (C57BL/6NCrl from Charles River Labs) using a two-step collagenase perfusion technique which involves a sequential perfusion of anesthetized mice with Hanks' balanced salt solution and collagenase. Following isolation, viable wild type hepatocytes (0.1 M cells/well) were incubated with test compound in presence of pyruvate and compound potency was evaluated by measuring the lactate produced by the cells using liquid chromatography coupled to mass spectrometry. Chromatographic separation was achieved on an XDB-C18 4.6×50 mm column (Agilent, Cat #927975-902) at a flow rate of 1 mL/min Mobile phase A consisted of 0.1% formic acid in water and mobile phase B consisted of acetonitrile. A gradient program was initiated starting at 5% B which was held for 1 minutes, then ramped from 5% to 95% B over 1 minute. After holding at 95% B for 1 minute, the program changed back to 5% B. The column was equilibrated with 5% B for […] before the next injection. The mass spectrometer was operated in negative mode with electrospray ionization. The following transition along with their collision energy (CE) were used: 89→43 (CE: −16 V) for lactate and 92→45 (CE: −16 V) for ^13C3-Lactate (internal standard).

[3] = molecular target: T1, human recombinant C-terminal His-tagged LDHA (Homo sapiens, UniProt P00338); assay: Human LDHA enzyme assay, human serum albumin (HSA) shift; assay type: biochemical; conditions: final concentration 10% HSA
T1 construct: His (C)
Experimental: (§1) Compounds were dissolved in DMSO and preincubated with human recombinant C-terminal His-tagged LDHA (0.070 μg/mL) for 10 min at room temperature in assay buffer consisting 50 mM Tris, pH 7.5 and 100 mM NaCl in black walled, clear bottom, non-binding 96-well plates. Equal volumes of substrate solution containing 100 μM of pyruvate and 100 μM of NADH in assay buffer was added to each well (final concentration 0.035 μg/mL enzyme, 50 μM pyruvate, 50 μM NADH, and 1% DMSO). For human serum albumin (HSA) shift assay, the compounds were preincubated with the enzyme in assay buffer containing 20% HSA before substrate addition (final concentration 10% HSA). The reaction was monitored at 340 nm on a plate reader (Molecular Devices) in kinetic mode for 15 min. The rate of the reaction was determined by plotting absorbance vs time.

[4] = molecular target: T1, human recombinant C-terminal His-tagged LDHA; assay: Human LDHA enzyme assay; assay type: biochemical; conditions: 50 μM pyruvate, 50 μM NADH, no HSA
Experimental: as §1

Measured Compound Concentrations Liver - 4 h [1] | Measured Compound Concentrations Liver - 24 h [1] | Measured Compound Concentrations Plasma - 4 h [1] | Measured Compound Concentrations Plasma - 24 h [1] | IC50 [3] | IC50 [4] | Compound | IC50 ([2]; 0.1 M cells/well) | IC50 ([2]; Run at 0.4M cells/well concentration of hepatocytes)
– | – | – | – | 1 to 10 nM | < 1 nM | NS(=O)(=O)c1c(F)cc(Cc2c(-c3ccc(F)cc3)nn(-c3nc(C(=O)O)cs3)c2CC2CC2)cc1F [Example 27, 2-(5-(Cyclopropylmethyl)-4-(3,5-difluoro-4-sulfamoylbenzyl)-3-(4-fluorophenyl)-1H-pyrazol-1-yl)thiazole-4-carboxylic acid] | 100 to 250 nM | –
– | – | – | – | 1 to 10 nM | < 1 nM | COc1cc(-c2nn(-c3nc(C(=O)O)cs3)c(CC3CC3)c2Cc2ccc(S(N)(=O)=O)c(F)c2)ccc1C#N [Example 23, 2-(3-(4-cyano-3-methoxyphenyl)-5-(cyclopropylmethyl)-4-(3-fluoro-4-sulfamoylbenzyl)-1H-pyrazol-1-yl)thiazole-4-carboxylic acid] | < 100 nM | –
– | – | – | – | 1 to 10 nM | 1 to 10 nM | COc1cc(F)cc(-c2nn(-c3nc(C(=O)O)cs3)c(CC3CC3)c2Cc2ccc(S(N)(=O)=O)c(F)c2)c1 [Example 24, 2-(5-(cyclopropylmethyl)-4-(3-fluoro-4-sulfamoylbenzyl)-3-(3-fluoro-5-methoxyphenyl)-1H-pyrazol-1-yl)thiazole-4-carboxylic acid] | < 100 nM | –

The next lines start with the compound.

Compound | Measured Compound Concentrations Liver - 4 h [1] | Measured Compound Concentrations Liver - 24 h [1] | Measured Compound Concentrations Plasma - 4 h [1] | Measured Compound Concentrations Plasma - 24 h [1] | IC50 [3] | IC50 [4] | IC50 ([2]; 0.1 M cells/well) | IC50 ([2]; Run at 0.4M cells/well concentration of hepatocytes)
N#Cc1cc(-c2nn(-c3nc(C(=O)O)cs3)c(CC3CC3)c2Cc2ccc(S(N)(=O)=O)c(F)c2)ccc1F [Example 2, 2-(3-(3-Cyano-4-fluorophenyl)-5-(cyclopropylmethyl)-4-(3-fluoro-4-sulfamoylbenzyl)-1H-pyrazol-1-yl)thiazole-4-carboxylic acid] | +++ (10 μM≥+++>5 μM) | − (0.25 μM≥−) | − (0.25 μM≥−) | − (0.25 μM≥−) | 1 to 10 nM | < 1 nM | < 100 nM | –
N#Cc1cccc(-c2nn(-c3nc(C(=O)O)cs3)c(CC3CC3)c2Cc2ccc(S(N)(=O)=O)c(F)c2)c1 [Example 11, 2-(3-(3-cyanophenyl)-5-(cyclopropylmethyl)-4-(3-fluoro-4-sulfamoylbenzyl)-1H-pyrazol-1-yl)thiazole-4-carboxylic acid] | +++ (10 μM≥+++>5 μM) | − (0.25 μM≥−) | − (0.25 μM≥−) | − (0.25 μM≥−) | 1 to 10 nM | < 1 nM | < 100 nM | –
NS(=O)(=O)c1ccc(Cc2c(-c3ccc(F)cc3)nn(-c3nc(C(=O)O)co3)c2CC2CC2)cc1F [Example 9, 2-(5-(Cyclopropylmethyl)-4-(3-fluoro-4-sulfamoylbenzyl)-3-(4-fluorophenyl)-1H-pyrazol-1-yl)oxazole-4-carboxylic acid] | ++ (5 μM≥++>1 μM) | − (0.25 μM≥−) | − (0.25 μM≥−) | − (0.25 μM≥−) | 1 to 10 nM | < 1 nM | – | 100 to 250 nM
NS(=O)(=O)c1ccc(Cc2c(-c3ccccc3)nn(-c3nc(C(=O)O)cs3)c2CC2CC2)cc1F [Example 20, 2-(5-(cyclopropylmethyl)-4-(3-fluoro-4-sulfamoylbenzyl)-3-phenyl-1H-pyrazol-1-yl)thiazole-4-carboxylic acid] | ++++ (++++>10 μM) | − (0.25 μM≥−) | − (0.25 μM≥−) | − (0.25 μM≥−) | 1 to 10 nM | < 1 nM | < 100 nM | –
